Assay results published in patent US20140308317A1, “Polymeric Compounds And Methods Of Making And Using The Same” (CELLCEUTIX CORPORATION, priority 2012, published 2014).
≈ marks a conversion by molar mass, not a printed value.

Key:
[1] = test system: Enterococcus faecalis ATCC 29212; assay: Minimum Inhibitory Concentration (MIC), modified microbroth dilution; assay type: cell-based; conditions: Enterococcus faecalis, ATCC29212; E. faecalis (29212); overnight incubation (18 hours); read-out: MIC50 E. faecalis
[2] = test system: Klebsiella pneumoniae ATCC 13883; assay: as above; assay type: cell-based; conditions: Klebsiella pneumoniae, ATCC13883; K. pneumoniae (13883); overnight incubation (18 hours); read-out: MIC50 K. Pnuemnoiae
[3] = test system: Pseudomonas aeruginosa ATCC 10145; assay: as above; assay type: cell-based; conditions: Pseudomonas aeruginosa, ATCC10145; P. aeruginosa (10145); overnight incubation (18 hours); read-out: MIC50 P. Aeruginosa
[4] = Cytotoxicity colorimetric (tetrazolium) assay; assay type: cell-based, human; conditions: human, HepG2 cells (HB-8065), HepG2 cells; one hour with compound in serum-free media
Protocol: (§1) Cytotoxicity of the compounds was evaluated in a colorimetric assay using a transformed human liver cell line (HepG2, HB-8065) and an embryonic mouse cell line (NIH/3T3 cells, CRL-1658). This assay measures the bioreduction of a novel tetrazolium compound to a soluble formazan product by viable cells. HepG2 cells were seeded in 96 well plates at 2×10^4 cells/well in MEM medium with 10% fetal bovine serum (FBS) 24 hours prior to use. NIH/3T3 cells were seeded in 96 well plates at 2×10^4 cells/well in DMEM medium with 10% bovine calf serum (BCS) 24 hours prior to use. Cell monolayers were rinsed in serum-free media and incubated for one hour with compounds in serum-free media. After incubation, the media is replaced with serum supplemented media and live cells were measured using the Cell Titer 96 Aqueous […] Assay kit (Promega, Madison, Wis.). EC50 values were determined using a four parameter logistic equation: Y=Bottom+(Top-Bottom)/(1+10̂((LogEC50−X)*HillSlope)).
(§2) Actual results from a representative cytotoxicity assay are shown below in Table 2. Data is expressed as EC50 in μg/mL.

[5] = test system: E. Coli ATCC 25922; assay: Minimum Inhibitory Concentration (MIC), modified microbroth dilution; assay type: cell-based; conditions: Escherichia coli, ATCC25922; E. coli (25922); overnight incubation (18 hours); read-out: MIC50 E. coli
[6] = Cytotoxicity colorimetric (tetrazolium) assay; assay type: cell-based, mouse; conditions: mouse, NIH/3T3 cells (CRL-1658), NIH/3T3 cells; one hour with compound in serum-free media
Protocol: as §1, §2

[7] = test system: Staphylococcus aureus ATCC 27660; assay: Minimum Inhibitory Concentration (MIC), modified microbroth dilution; assay type: cell-based; conditions: Staphylococcus aureus, ATCC27660; S. aureus (27660); overnight incubation (18 hours); read-out: MIC50 S. aureus

Compound	MIC50 [1]	MIC50 [2]	MIC50 [3]	MIC50 [5]	MIC50 [7]	EC50 at 1 h [4]	EC50 at 1 h [6]
O=C(c1cc(C(=O)N2CCNCC2)cc(-c2ccc3sc4ccc(-c5cc(C(=O)N6CCNCC6)cc(C(=O)N6CCNCC6)c5)cc4c3c2)c1)N1CCNCC1 [Compound 170]	> 100 µg/mL	> 100 µg/mL	> 100 µg/mL	> 100 µg/mL	> 100 µg/mL	> 1000 µg/mL	436 µg/mL (≈ 555 µM)
N=C(N)NCCc1cc(CCNC(=N)N)cc(-c2csc(-c3cccc(-c4nc(-c5cc(CCNC(=N)N)cc(CCNC(=N)N)c5)cs4)c3)n2)c1 [Compound 137]	12.5 µg/mL (≈ 17 µM)	> 50 µg/mL	12.5 µg/mL (≈ 17 µM)	12.5 µg/mL (≈ 17 µM)	3.13 µg/mL (≈ 4.25 µM)	55.6 µg/mL (≈ 75.4 µM)	26.6 µg/mL (≈ 36.1 µM)
NCCc1cc(CCN)cc(-c2cccc(-c3cc(CCN)cc(CCN)c3)c2)c1 [Compound 115]	> 50 µg/mL	50 µg/mL (≈ 124 µM)	> 50 µg/mL	25 µg/mL (≈ 62.1 µM)	25 µg/mL (≈ 62.1 µM)	> 1160 µg/mL	1130 µg/mL (≈ 2810 µM)
NCCCn1c2cc(-c3cccc(N(CCN)CCN)c3)ccc2c2ccc(-c3cccc(N(CCN)CCN)c3)cc21 [Compound 160]	6.25 µg/mL (≈ 10.8 µM)	6.25 µg/mL (≈ 10.8 µM)	12.5 µg/mL (≈ 21.6 µM)	1.56 µg/mL (≈ 2.7 µM)	0.39 µg/mL (≈ 0.674 µM)	853 µg/mL (≈ 1470 µM)	451 µg/mL (≈ 779 µM)
NCCCOc1cc(OCCCN)cc(-c2ccc3sc4ccc(-c5cc(OCCCN)c(OCCCN)c(OCCCN)c5)cc4c3c2)c1 [Compound 182]	6.25 µg/mL (≈ 8.9 µM)	25 µg/mL (≈ 35.6 µM)	12.5 µg/mL (≈ 17.8 µM)	6.25 µg/mL (≈ 8.9 µM)	1.56 µg/mL (≈ 2.22 µM)	173 µg/mL (≈ 246 µM)	78.2 µg/mL (≈ 111 µM)
NCCc1cccc(-c2coc(-c3cccc(-c4ncco4)c3)n2)c1 [Compound 133]	25 µg/mL (≈ 75.4 µM)	> 50 µg/mL	> 50 µg/mL	> 50 µg/mL	50 µg/mL (≈ 151 µM)	130 µg/mL (≈ 392 µM)	70.2 µg/mL (≈ 212 µM)

Continued, in another order:

MIC50 [1]	MIC50 [2]	MIC50 [3]	MIC50 [5]	MIC50 [7]	Compound	EC50 at 1 h [4]	EC50 at 1 h [6]
25 µg/mL (≈ 39.9 µM)	> 50 µg/mL	25 µg/mL (≈ 39.9 µM)	50 µg/mL (≈ 79.8 µM)	6.25 µg/mL (≈ 9.97 µM)	NCCCOc1cc(OCCCN)cc(-c2ccc(C(=O)c3ccc(-c4cc(OCCCN)cc(OCCCN)c4)cc3)cc2)c1 [Compound 165]	355 µg/mL (≈ 566 µM)	357 µg/mL (≈ 570 µM)
12.5 µg/mL (≈ 30.7 µM)	12.5 µg/mL (≈ 30.7 µM)	100 µg/mL (≈ 246 µM)	12.5 µg/mL (≈ 30.7 µM)	1.56 µg/mL (≈ 3.84 µM)	NCCCn1c2cc(-c3cccc(N)c3)ccc2c2ccc(-c3cccc(N)c3)cc21 [Compound 159]	64.7 µg/mL (≈ 159 µM)	45.7 µg/mL (≈ 112 µM)
6.25 µg/mL (≈ 13.9 µM)	> 50 µg/mL	12.5 µg/mL (≈ 27.7 µM)	12.5 µg/mL (≈ 27.7 µM)	1.56 µg/mL (≈ 3.46 µM)	NCCc1ccc(C#Cc2cccc(C#Cc3ccc(CCN)c(CCN)c3)c2)cc1CCN [Compound 194]	192 µg/mL (≈ 426 µM)	154 µg/mL (≈ 342 µM)
12.5 µg/mL (≈ 25.7 µM)	> 50 µg/mL	50 µg/mL (≈ 103 µM)	12.5 µg/mL (≈ 25.7 µM)	3.13 µg/mL (≈ 6.43 µM)	NCCc1cc(C#Cc2cc(C#Cc3cc(CCN)cc(CCN)c3)c(F)cc2F)cc(CCN)c1 [Compound 192]	554 µg/mL (≈ 1140 µM)	542 µg/mL (≈ 1110 µM)
> 50 µg/mL	> 50 µg/mL	25 µg/mL (≈ 38.3 µM)	> 50 µg/mL	1.56 µg/mL (≈ 2.39 µM)	NCCCOc1cc(OCCCN)cc(-c2ccc3c(c2)C(=O)c2cccc(-c4cc(OCCCN)cc(OCCCN)c4)c2CC3)c1 [Compound 155]	330 µg/mL (≈ 505 µM)	177 µg/mL (≈ 271 µM)
12.5 µg/mL (≈ 27.7 µM)	25 µg/mL (≈ 55.5 µM)	25 µg/mL (≈ 55.5 µM)	12.5 µg/mL (≈ 27.7 µM)	12.5 µg/mL (≈ 27.7 µM)	NCCc1cccc(-c2coc(-c3cccc(-c4nc(-c5cccc(CCN)c5)co4)c3)n2)c1 [Compound 132]	50.1 µg/mL (≈ 111 µM)	23.5 µg/mL (≈ 52.1 µM)
1.56 µg/mL (≈ 3.46 µM)	25 µg/mL (≈ 55.5 µM)	25 µg/mL (≈ 55.5 µM)	12.5 µg/mL (≈ 27.7 µM)	1.56 µg/mL (≈ 3.46 µM)	NCCc1cccc(-c2cc(-c3cccc(-c4cc(-c5cccc(CCN)c5)on4)c3)no2)c1 [Compound 128]	47 µg/mL (≈ 104 µM)	22.3 µg/mL (≈ 49.5 µM)
12.5 µg/mL (≈ 20.2 µM)	1.56 µg/mL (≈ 2.52 µM)	12.5 µg/mL (≈ 20.2 µM)	1.56 µg/mL (≈ 2.52 µM)	0.78 µg/mL (≈ 1.26 µM)	N=C(N)NCCc1cc(C#Cc2ccc(C#Cc3cc(CCNC(=N)N)cc(CCNC(=N)N)c3)cc2)cc(CCNC(=N)N)c1 [Compound 199]	135 µg/mL (≈ 218 µM)	116 µg/mL (≈ 188 µM)
